Measured values taken from publication PMC6271717, “Chemical Composition, Biological and Cytotoxic Activities of Plant Extracts and Compounds Isolated from Ferula lutea” (Molecules, 2014).
Values after ≈ are worked out from the molar mass of the structure shown.

Experiments:
[1] = tested on: human chronic myelogenous leukaemia cell line K562; test: Cytotoxic activity (MTT assay); assay type: cell-based; conditions: K562, 72 h
Experimental: Cytotoxic activity of extracts against the human chronic myelogenous leukaemia cell line K562 was estimated by the 3-(4,5-dimethylthiazol-2-yl)-2,5-diphenyltetrazolium bromide (MTT) assay of Khlifi et al.. The cells were grown in RPMI- 1640 medium supplemented with 10% faetal calf serum (Gibco, Gaithersburg, MD, USA), air and 5% CO2. The resulting blue formazan product can be measured spectrophotometrically. The MTT colorimetric assay was performed in 96-well plates. […] human chronic myelogenous leukaemia K562 cells were seeded in a 96-well plate at a concentration of 10^4 cells/well and incubated at 37 °C overnight in a 5% CO2 enriched atmosphere. Cells in exponential growth phase were incubated at 37 °C for 72 h with each tested compound at concentrations ranging from 3.12 to 400 μg/mL. After that, the medium was removed and cells were treated with MTT solution (100 μL, 0.2 mg/mL in PBS) at 37 °C for 2 h. MTT solution was then discarded and DMSO (500 μL) was added to dissolve insoluble formazan crystals. Optical density was measured at 540 nm. Each extract concentration was tested in triplicate. Doxorubicin was used as positive control.

[2] = tested on: Escherichia coli ATCC 25922; test: Antibacterial activity, broth microdilution; assay type: cell-based; conditions: ATCC25922, positive control
Experimental: (§1) The test microorganisms included the following Gram-positive bacteria: Staphylococcus aureus ATCC 25923, Enterococcus faecalis ATCC 29212; Gram-negative bacteria: Escherichia coli ATCC 25922 and Pseudomonas aeruginosa ATCC 27853 and four Candida yeasts: Candida albicans ATCC 90028, C. glabrata ATCC 90030, C. kreusei ATCC 6258 and C. parapsilosis ATCC 22019).
(§2) The MIC values for the antibacterial and anticandidal screening were determined with the broth dilution method (microdilution using 96-well microplates) following the procedure described by Cintia et al. [35]. Briefly, all samples were prepared at a concentration of 10 mg/mL by dissolution of the extracts in 10% DMSO. The final concentrations of the plant samples tested ranged from 40 to 2 × 10^4 µg/mL. The MIC of each sample was defined as the lowest concentration of oil that inhibited either the bacterial or candidal growth, after incubation at 37 °C for 18 to 24 h. The MBC and the MFC were determined by subculture on blood agar at 37 °C for 18 to 24 h. Thymol and gentamicin or thymol and amphotericin B were used as positive controls against the bacterial or candidal strains, respectively. […] All tests were performed in triplicate.

[3] = tested on: Enterococcus faecalis ATCC 29212; test: Antibacterial activity, broth microdilution; assay type: cell-based; conditions: ATCC29212, positive control
Experimental: as §2

[4] = tested on: Pseudomonas aeruginosa ATCC 27853; test: Antibacterial activity, broth microdilution; assay type: cell-based; conditions: ATCC27853, positive control
Experimental: as §1, §2

[5] = tested on: Staphylococcus aureus ATCC 25923; test: Antibacterial activity, broth microdilution; assay type: cell-based; conditions: ATCC25923, positive control
Experimental: as §2

[6] = tested on: Candida glabrata ATCC 90030; test: Anticandida activity, broth microdilution; assay type: cell-based; conditions: Nakaseomyces glabratus, ATCC90030; positive control
Experimental: as §1, §2

[7] = tested on: Candida albicans ATCC 90028; test: Anticandida activity, broth microdilution; assay type: cell-based; conditions: ATCC90028, positive control
Experimental: as §1, §2

[8] = tested on: Candida parapsilosis ATCC 22019; test: Anticandida activity, broth microdilution; assay type: cell-based; conditions: Lodderomyces parapsilosis, ATCC22019; positive control
Experimental: as §1, §2

[9] = tested on: Candida kreseui ATCC 6258; test: Anticandida activity, broth microdilution; assay type: cell-based; conditions: ATCC6258, positive control
Experimental: as §2

[10] = Antioxidant activity by DPPH assay
Experimental: Diluted methanol solutions of the samples at different concentrations (1 mL each) were mixed with 1 mL of a freshly prepared (80 µg/mL) methanol solution of DPPH. The resulted solution was incubated at 37 °C for 30 min after what the absorbance of the solution was measured at 517 nm. Lower absorbance of the reaction mixture indicates higher free radical scavenging activity. Tests were carried out in triplicate. Decrease in absorption induced by the tested sample was compared to that of the positive control ascorbic acid. The capability to scavenge the DPPH^.radical was calculated using the following equation: Inhibition ratio (DPPH^. scavenging effect) (%) = [(Acontrol − Asample) / Acontrol] × 100 (1)
The IC50 was calculated using the linear relation between the compound concentration and the probability of the percentage of DPPH inhibition.

[11] = Antioxidant activity by ABTS assay
Experimental: ABTS was dissolved in water to a 7 mM concentration and the ABTS radical cation was produced by adding potassium persulfate to a final concentration of 2.45 mM [31]. The radical generation was completed in the dark at room temperature for 12 h. This solution was then diluted with methanol to adjust its absorbance at 734 nm to 0.706 ± 0.009. To determine the scavenging activity, 1 mL of diluted ABTS^+. solution was added to 1 mL of methanolic solutions of extract at different concentrations and the absorbance at 734 nm was measured 10 min after the initial mixing, using methanol as the blank. The percentage of inhibition was calculated by the equation: [(Acontrol − Asample)/Acontrol] × 100 (2) where Acontrol is the absorbance of the control reaction containing all reagents except the tested sample, and Asample is the absorbance of the test compound. Tests were carried out in triplicate. Ascorbic acid was used as the positive control. The IC50 was calculated using linear relation between the compound concentration and probability of the percentage of ABTS inhibition.

## COc1cccc2c1C(=O)c1c(O)c3c(c(O)c1C2=O)C[C@@](O)(C(=O)CO)C[C@@H]3O[C@H]1C[C@H](N)[C@H](O)[C@H](C)O1 [Doxorubicin]
[1]
  IC50: 0.1 µg/mL (≈ 0.184 µM)

## CNC(C)C1CCC(N)C(OC2C(N)CC(N)C(OC3OCC(C)(O)C(NC)C3O)C2O)O1 (stereo not shown) [Gentamecin, gentamicin]
[2]
  MBC: 0.01 µg/mL (≈ 0.0209 µM)
[3]
  MBC: 0.01 µg/mL (≈ 0.0209 µM)
[4]
  MBC: 0.5 µg/mL (≈ 1.05 µM)
[5]
  MBC: 0.15 µg/mL (≈ 0.314 µM)

## Cc1ccc(C(C)C)c(O)c1 [Thymol]
[2]
  MIC: 0.25 µg/mL (≈ 1.66 µM)
[3]
  MIC: 0.6 µg/mL (≈ 3.99 µM)
[6]
  MIC: 0.16 µg/mL (≈ 1.07 µM)
[4]
  MIC: 1 µg/mL (≈ 6.66 µM)
[7]
  MIC: 0.13 µg/mL (≈ 0.865 µM)
[8]
  MIC: 0.32 µg/mL (≈ 2.13 µM)
[5]
  MIC: 0.2 µg/mL (≈ 1.33 µM)
[9]
  MIC: 0.32 µg/mL (≈ 2.13 µM)

## O=C1O[C@H]([C@@H](O)CO)C(O)=C1O [Vitamin C, L-ascorbic acid]
[10]
  DPPH Assay IC50: 4.4 ± 0.1 µg/mL
[11]
  ABTS+ Assay IC50: 4.1 ± 0.1 µg/mL

## C[C@@H]1[C@H](O)[C@@H](C)/C=C/C=C/C=C/C=C/C=C/C=C/C=C/[C@H](O[C@@H]2O[C@H](C)[C@@H](O)[C@H](N)[C@@H]2O)C[C@@H]2O[C@](O)(C[C@@H](O)C[C@@H](O)[C@H](O)CC[C@@H](O)C[C@@H](O)CC(=O)O[C@H]1C)C[C@H](O)[C@H]2C(=O)O [Amphotericin B]
[6]
  MFC: 0.5 µg/mL (≈ 0.541 µM)
[7]
  MFC: 0.5 µg/mL (≈ 0.541 µM)
[8]
  MFC: 0.5 µg/mL (≈ 0.541 µM)
[9]
  MFC: 0.5 µg/mL (≈ 0.541 µM)
